Data published in ChEMBL document CHEMBL1201862, “PubChem BioAssay data set” (2004).
Each block holds one molecule with its values, some of them ahead of it. Active and inactive are the calls of the source.

Legend:
INS1 = experiment: beta cell apoptosis inhibitors, cytokine rescue, dose response, luminescence, retest (AID 449756); assay type: functional, cell-based; conditions: Rattus norvegicus;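 note: cell death triggered by IL-1 beta plus TNF-alpha plus IFN-gamma mixture; protective hits raise ATP signal compared with cytokine alone wells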
H9c2 = experiment: cells; assay type: functional, cell-based; conditions: Rattus norvegicus, H9c2, Myocardium;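 note: confirmatory concentration-response retest of ultra-high-throughput screening hits for modulation of myocardial damage; cell death induced by hydrogen peroxide oxidative stress; compound pretreatment for 60 min then peroxide exposure for 2 h; potency is for protecting the cells against peroxide damage rather than for killing them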
[1] = intracellular Trypanosoma cruzi inhibitors in host cells – cell-based, plate reader, cherry-pick samples, set 3, dose response (AID 651818); assay type: functional;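 note: compounds incubated with infected cells for about four days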
[2] = target: T1, Corticotropin-releasing factor receptor 2/Corticotropin-releasing factor-binding protein (Homo sapiens, UniProt P24387+Q13324); experiment: Dose Response confirmation of uHTS hits for small molecule antagonists of the CRF-binding protein and CRF-R2 receptor complex.; assay type: functional; conditions: read-out: IC50_Mean
T1 sequence (Q13324 whole entry): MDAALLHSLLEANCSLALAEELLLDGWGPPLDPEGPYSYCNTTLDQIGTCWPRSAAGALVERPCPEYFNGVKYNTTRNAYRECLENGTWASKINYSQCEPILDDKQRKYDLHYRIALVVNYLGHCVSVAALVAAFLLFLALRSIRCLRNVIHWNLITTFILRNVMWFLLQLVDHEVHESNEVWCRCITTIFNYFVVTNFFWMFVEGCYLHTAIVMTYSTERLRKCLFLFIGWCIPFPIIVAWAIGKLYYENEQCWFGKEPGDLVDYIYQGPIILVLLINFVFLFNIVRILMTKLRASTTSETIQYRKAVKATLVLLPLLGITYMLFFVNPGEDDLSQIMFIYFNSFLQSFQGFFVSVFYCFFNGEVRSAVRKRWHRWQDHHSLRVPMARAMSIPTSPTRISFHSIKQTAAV
T1 sequence (P24387 whole entry): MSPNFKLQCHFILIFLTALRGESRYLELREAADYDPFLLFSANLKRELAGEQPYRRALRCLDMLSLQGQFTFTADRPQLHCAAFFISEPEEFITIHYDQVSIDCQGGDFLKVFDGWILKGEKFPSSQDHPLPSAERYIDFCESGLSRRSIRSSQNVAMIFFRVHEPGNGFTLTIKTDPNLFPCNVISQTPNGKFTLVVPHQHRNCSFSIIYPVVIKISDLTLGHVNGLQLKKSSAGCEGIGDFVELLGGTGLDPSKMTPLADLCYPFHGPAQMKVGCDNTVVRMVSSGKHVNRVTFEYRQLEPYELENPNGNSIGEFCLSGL

[3] = CRF-BP/CRF-R2 complex antagonists, dose response, cell-based, uHTS hits, 384-well (AID 651639); assay type: functional, Homo sapiens; conditions: read-out: IC50_Mean
[4] = target: T1, Corticotropin-releasing factor receptor 2/Corticotropin-releasing factor-binding protein; experiment: activators of CRF receptor 2 with binding protein – uHTS hits, confirmation (AID 602473); assay type: functional; conditions: read-out: EC50_Mean
[5] = target: T2, Sentrin-specific protease 7 (Homo sapiens, UniProt Q9BQF6); experiment: SENP7 protease inhibitors, SAR follow-up, biochemical, luminescence (AID 504497); assay type: functional
T2 sequence (Q9BQF6 whole entry): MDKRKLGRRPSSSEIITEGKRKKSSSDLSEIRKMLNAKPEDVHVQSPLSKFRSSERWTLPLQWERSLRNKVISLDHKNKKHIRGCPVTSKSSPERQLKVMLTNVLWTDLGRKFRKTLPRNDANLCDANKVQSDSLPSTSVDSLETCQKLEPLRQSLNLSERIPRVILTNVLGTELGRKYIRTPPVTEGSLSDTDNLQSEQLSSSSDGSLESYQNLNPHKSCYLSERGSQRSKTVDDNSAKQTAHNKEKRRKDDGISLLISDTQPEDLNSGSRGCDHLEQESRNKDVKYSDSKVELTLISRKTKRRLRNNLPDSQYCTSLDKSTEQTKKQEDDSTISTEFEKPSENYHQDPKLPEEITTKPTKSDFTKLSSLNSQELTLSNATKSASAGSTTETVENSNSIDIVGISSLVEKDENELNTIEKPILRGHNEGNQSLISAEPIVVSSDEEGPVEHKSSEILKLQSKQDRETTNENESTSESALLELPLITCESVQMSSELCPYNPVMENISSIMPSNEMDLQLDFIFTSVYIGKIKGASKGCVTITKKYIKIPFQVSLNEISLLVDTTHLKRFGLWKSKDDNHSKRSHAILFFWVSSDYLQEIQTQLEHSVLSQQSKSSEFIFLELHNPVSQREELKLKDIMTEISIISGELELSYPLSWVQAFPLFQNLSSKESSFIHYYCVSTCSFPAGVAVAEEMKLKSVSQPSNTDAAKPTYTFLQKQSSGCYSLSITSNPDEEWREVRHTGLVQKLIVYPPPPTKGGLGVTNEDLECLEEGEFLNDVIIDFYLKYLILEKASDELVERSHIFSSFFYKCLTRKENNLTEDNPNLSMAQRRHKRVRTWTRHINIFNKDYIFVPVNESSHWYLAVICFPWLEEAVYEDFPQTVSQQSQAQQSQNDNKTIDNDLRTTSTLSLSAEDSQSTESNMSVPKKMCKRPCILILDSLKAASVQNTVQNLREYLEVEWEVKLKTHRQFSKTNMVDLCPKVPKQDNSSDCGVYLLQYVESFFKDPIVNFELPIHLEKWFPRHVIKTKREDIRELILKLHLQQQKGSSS

[6] = target: T3, Sentrin-specific protease 6 (Homo sapiens, UniProt Q9GZR1); experiment: SAR Analysis of small molecule inhibitors of Sentrin-specific protease 6 (SENP6) using a Luminescent assay. [Related pubchem assays (depositor defined):AID2582, AID2599]; assay type: functional
T3 sequence (Q9GZR1 whole entry): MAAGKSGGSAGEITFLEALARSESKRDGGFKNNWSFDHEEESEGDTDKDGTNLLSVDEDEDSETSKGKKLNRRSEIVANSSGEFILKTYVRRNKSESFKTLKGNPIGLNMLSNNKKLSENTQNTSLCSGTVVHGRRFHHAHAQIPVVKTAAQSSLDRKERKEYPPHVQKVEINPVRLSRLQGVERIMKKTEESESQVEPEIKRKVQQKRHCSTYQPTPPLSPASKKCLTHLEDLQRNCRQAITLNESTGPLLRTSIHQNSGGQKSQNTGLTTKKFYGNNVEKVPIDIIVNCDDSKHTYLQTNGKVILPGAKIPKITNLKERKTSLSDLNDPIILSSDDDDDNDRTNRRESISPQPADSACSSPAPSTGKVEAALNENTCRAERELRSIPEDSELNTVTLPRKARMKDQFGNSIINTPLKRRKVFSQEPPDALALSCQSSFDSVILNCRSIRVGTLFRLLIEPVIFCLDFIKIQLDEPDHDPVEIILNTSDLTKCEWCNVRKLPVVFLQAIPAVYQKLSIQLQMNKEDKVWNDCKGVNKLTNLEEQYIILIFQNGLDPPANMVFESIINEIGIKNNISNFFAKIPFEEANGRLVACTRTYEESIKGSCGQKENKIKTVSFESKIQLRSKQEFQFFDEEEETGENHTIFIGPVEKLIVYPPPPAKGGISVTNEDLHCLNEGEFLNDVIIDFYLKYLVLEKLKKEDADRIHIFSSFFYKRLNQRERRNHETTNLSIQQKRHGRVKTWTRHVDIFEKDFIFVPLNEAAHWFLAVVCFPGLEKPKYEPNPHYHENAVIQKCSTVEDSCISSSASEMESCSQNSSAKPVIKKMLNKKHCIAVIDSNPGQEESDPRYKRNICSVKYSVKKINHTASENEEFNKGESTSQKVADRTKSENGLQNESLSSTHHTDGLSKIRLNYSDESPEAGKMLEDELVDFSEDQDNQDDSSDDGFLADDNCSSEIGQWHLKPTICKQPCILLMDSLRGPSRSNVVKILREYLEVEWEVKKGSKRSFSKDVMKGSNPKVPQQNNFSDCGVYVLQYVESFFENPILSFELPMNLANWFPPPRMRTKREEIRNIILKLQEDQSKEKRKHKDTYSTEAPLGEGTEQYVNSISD

[7] = target: T4, Sentrin-specific protease 8 (Homo sapiens, UniProt Q96LD8); experiment: SENP8 protease inhibitors, SAR follow-up, biochemical, luminescence (AID 504501); assay type: functional
T4 sequence (Q96LD8 whole entry): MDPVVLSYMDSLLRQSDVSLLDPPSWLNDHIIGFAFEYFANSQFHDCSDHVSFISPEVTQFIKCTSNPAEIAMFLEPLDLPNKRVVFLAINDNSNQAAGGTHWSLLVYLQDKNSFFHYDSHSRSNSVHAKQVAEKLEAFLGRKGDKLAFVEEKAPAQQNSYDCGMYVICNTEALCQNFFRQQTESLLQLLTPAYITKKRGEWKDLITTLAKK

Caspase-3 = target: T5, Caspase-3 (Homo sapiens, UniProt P42574); experiment: SAR Analysis of small molecule inhibitors of Sentrin-specific proteases (SENPs) using a Caspase-3 Selectivity assay. [Related pubchem assays (depositor defined):AID2540, AID2599, AID434973, AID489001]; assay type: functional
T5 sequence (P42574 whole entry): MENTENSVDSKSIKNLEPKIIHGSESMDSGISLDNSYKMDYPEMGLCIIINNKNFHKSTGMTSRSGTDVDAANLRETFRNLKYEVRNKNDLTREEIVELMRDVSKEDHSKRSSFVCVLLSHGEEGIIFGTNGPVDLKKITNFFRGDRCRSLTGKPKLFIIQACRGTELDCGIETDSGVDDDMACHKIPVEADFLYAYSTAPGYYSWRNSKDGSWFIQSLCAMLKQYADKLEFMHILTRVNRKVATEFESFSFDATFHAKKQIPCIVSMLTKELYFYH

SN12K1 = experiment: cells; assay type: functional; conditions: Homo sapiens

Compound: Cc1ccc(C(=O)Nc2nc(-c3ccccn3)cs2)s1
- AC50 (INS1): 1.67 µM (active)
- IC50 (H9c2): > 79 µM (inactive)

Compound: Cc1noc(C)c1S(=O)(=O)Nc1ccc2c(c1)C(=O)N([C@@H](C)CO)C[C@H](C)[C@H](CN(C)Cc1ccc(C(=O)Nc3ccccc3N)cc1)O2
- AC50 [1]: 2.08 µM (active)

Compound: C[C@@H]1CN([C@H](C)CO)C(=O)Cc2cc(NC(=O)Nc3cccc4ccccc34)ccc2O[C@@H]1CN(C)Cc1ccc(C(F)(F)F)cc1
- AC50 [1]: 4.02 µM (active)

- IC50 [2]: < 0.368 µM (active)
- IC50 [3]: > 20 µM (inactive)
- EC50 [4]: > 53 µM (inactive)
Compound: Cc1ccc(S(=O)(=O)c2nnn3c2nc(N2CCOCC2)c2ccccc23)c(C)c1

Compound: C[C@@H]1CN([C@H](C)CO)C(=O)Cc2cc(NC(=O)Cc3cn(C)c4ccccc34)ccc2O[C@H]1CN(C)CC1CCCCC1
- AC50 [1]: 8.13 µM (active)

Compound: Cc1ccc(C(C)C)c(OCC(=O)NNC(=O)Cn2[nH]c(=O)c3ccccc3c2=O)c1
- IC50 (H9c2): > 79 µM (inactive)

Compound: CCOc1cc(/C=C(\C#N)C(=O)Nc2ccc(S(N)(=O)=O)cc2)ccc1OCCN1CCOCC1
- IC50 (H9c2): > 79 µM (inactive)

Compound: CCOC(=O)c1c(C)[nH]c(C(=O)COc2ccc3ccc(=O)oc3c2)c1C
- IC50 (H9c2): 23.7 µM (active)

- IC50 [5]: > 99 µM (inactive)
- IC50 [6]: > 99 µM (inactive)
- IC50 (Caspase-3): > 99 µM (inactive)
Compound: Cc1[nH]c(=O)sc1S(=O)(=O)N1CCN(C(=O)c2sc3cc(F)ccc3c2Cl)CC1
- IC50 [7]: > 99 µM (inactive)

- IC50 [2]: 4.74 µM (active)
- IC50 [3]: > 20 µM (inactive)
- EC50 [4]: > 53 µM (inactive)
Compound: Clc1cccc(-c2nnc(SC/C=C/c3ccccc3)n2Cc2ccco2)c1

- IC50 [5]: > 99 µM (inactive)
- IC50 [6]: > 99 µM (inactive)
- IC50 (Caspase-3): > 99 µM (inactive)
Compound: CCCc1ccccc1-c1nc(/C=C/c2ccccc2)no1
- IC50 [7]: > 99 µM (inactive)

Compound: C[C@@H]1CN([C@H](C)CO)C(=O)Cc2cc(NS(=O)(=O)c3ccc(Cl)cc3)ccc2O[C@H]1CN(C)CC1CCCCC1
- AC50 [1]: 2.67 µM (active)

Compound: CC(C)(C)OC(=O)C[C@@H]1C/C=C\C[C@@H](CC(=O)N[C@H](CO)Cc2ccccc2)C(=O)NC[C@@H](c2ccccc2)OC1=O
- IC50 (H9c2): > 79 µM (inactive)

- IC50 [5]: > 99 µM (inactive)
- IC50 [6]: > 99 µM (inactive)
- IC50 (Caspase-3): > 99 µM (inactive)
Compound: CCCCc1ccc2nc(NC(=O)c3oc4ccccc4c3C)sc2c1
- IC50 [7]: > 99 µM (inactive)

Compound: C[C@@H]1CN([C@H](C)CO)C(=O)Cc2cc(NC(=O)Nc3ccc(F)cc3)ccc2O[C@H]1CN(C)CC1CCCCC1
- AC50 [1]: 6.17 µM (active)

Compound: O=C(OC(=O)n1ccc2ccccc21)n1ccc2ccccc21
- GI50 (SN12K1): > 100 µM (inactive)

- IC50 [2]: 7.86 µM (active)
- IC50 [3]: 15.4 µM (active)
- EC50 [4]: > 53 µM (inactive)
Compound: COC(=O)c1ccc(CSc2nc3c(c(=O)n2-c2ccc(Br)cc2)SCC3)o1

Compound: C[C@H](CO)N1C[C@H](C)[C@@H](CN(C)S(=O)(=O)c2ccc(F)cc2)Oc2ccc(NC(=O)Nc3ccc4c(c3)OCO4)cc2C1=O
- IC50 (H9c2): > 79 µM (inactive)

- IC50 [5]: > 99 µM (inactive)
- IC50 [6]: > 99 µM (inactive)
- IC50 (Caspase-3): > 99 µM (inactive)
Compound: CCOc1ccc2nc(NC(=O)Cn3c(=O)oc4ccc(C(=O)N5CCCC5)cc43)sc2c1
- IC50 [7]: > 99 µM (inactive)

Compound: C[C@@H]1CN([C@@H](C)CO)C(=O)c2cc(NC(=O)Cc3cn(C)c4ccccc34)ccc2O[C@H]1CN(C)Cc1ccc(C(F)(F)F)cc1
- AC50 [1]: 4.31 µM (active)

- IC50 [5]: > 99 µM (inactive)
- IC50 [6]: > 99 µM (inactive)
- IC50 (Caspase-3): > 99 µM (inactive)
Compound: CN(C)CCN(C(=O)c1ccc(Cl)s1)c1nc2ccc(F)cc2s1
- IC50 [7]: > 99 µM (inactive)

- IC50 [2]: 18.7 µM (active)
- IC50 [3]: 8.28 µM (active)
- EC50 [4]: > 53 µM (inactive)
Compound: O=C(NCc1ccc2c(c1)OCO2)c1c(F)c(F)c(F)c(F)c1F
